The record followed here is patent publication US8349867B2, “Quinoline compounds, intermediates, preparation methods and uses thereof” (Shanghai Institute of Pharmaceutical Industry, priority 2006, dated 2013).

A word on the melting point: it is the temperature, or range, at which the solid turns liquid.

Molecule `CC(C)c1ccc(Sc2c(/C=C/[C@@H]3C[C@@H](O)CC(=O)O3)cnc3ccccc23)cc1` [Compound A4] showed a melting point of 147 to 148 °C. Consider `O=C1C[C@H](O)C[C@@H](/C=C/c2cnc3ccccc3c2Sc2ccc(F)cc2)O1` [Compound A2], for which the melting point was 130 to 132 °C.

In turn, `CC(C)c1ccc(Sc2cc3ncc(/C=C/[C@@H]4C[C@@H](O)CC(=O)O4)c(Sc4ccc(C(C)C)cc4)c3cc2Sc2ccc(C(C)C)cc2)cc1` [Compound A32] showed a melting point of 182 to 184 °C. With `CC(C)c1ccc(Sc2c(/C=C/[C@@H]3C[C@@H](O)CC(=O)O3)cnc3cc(Cl)c(F)cc23)cc1` [Compound A12], the melting point was 175 to 177 °C. To `COc1cccc(Sc2cc3ncc(/C=C/[C@@H]4C[C@@H](O)CC(=O)O4)c(Sc4cccc(OC)c4)c3cc2Sc2cccc(OC)c2)c1` [Compound A31] belongs 57 to 59 °C.
